This passage reports melting point results from patent US6407103B2, “Indeno [1,2-c] pyrazol-4-ones and their uses” (Bristol-Myers Squibb Pharma Company, priority 1998, dated 2002).

Structures are written as SMILES. Counter-ions that a name gives are not always drawn.

As a reminder, the melting point is the temperature, or range, at which the solid turns liquid. In turn, `CN1CCN(c2ccc(-c3[nH]nc4c3C(=O)c3c(NC(=O)NN5CCOCC5)cccc3-4)cc2)CC1` (as salt: TFA) [Example CCXVIII, 3-(4-(4-methylpiperazino)phenyl)-5-(morpholinocarbamoylamino)indeno[1,2-c]pyrazol-4-one] gave a melting point of 245 °C. With `CC(C)N1CCN(c2ccc(-c3[nH]nc4c3C(=O)c3c(NC(=O)NN5CCOCC5)cccc3-4)cc2)CC1` (as salt: TFA) [Example CCXX, 3-(4-(4-isopropylpiperazino)phenyl)-5-(morpholinocarbamoylamino)indeno[1,2-c]pyrazol-4-one] the figure was 253 °C; with `CN(C)NC(=O)Nc1cccc2c1C(=O)c1c-2n[nH]c1-c1ccc(N2CCNCC2)cc1` (as salt: TFA) [Example CCXXI, 3-(4-piperazinophenyl)-5-((N,N-dimethylamino)carbamoylamino)indeno[1,2-c]pyrazol-4-one], 238 °C. Molecule `CN1CCN(c2ccc(-c3[nH]nc4c3C(=O)c3c(NC(=O)NN(C)C)cccc3-4)cc2)CC1` (as salt: TFA) [Example CCXXII, 3-(4-(4-methylpiperazino)phenyl)-5-((N,N-dimethylamino)carbamoylamino)indeno[1,2-c]pyrazol-4-one] yielded a melting point of 192 °C. With `CN1CCN(NC(=O)Nc2cccc3c2C(=O)c2c-3n[nH]c2-c2ccc(N3CCNCC3)cc2)CC1` (as salt: TFA) [Example CCXXIII, 3-(4-piperazinophenyl)-5-((4-methylpiperazino)carbamoylamino)indeno[1,2-c]pyrazol-4-one], the melting point was 254 °C. For the molecule `CN1CCN(NC(=O)Nc2cccc3c2C(=O)c2c-3n[nH]c2-c2ccc(N3CCN(C)CC3)cc2)CC1` (as salt: TFA) [Example CCXXIV, 3-(4-(4-methylpiperazino)phenyl)-5-((4-methylpiperazino)carbamoylamino)indeno[1,2-c]pyrazol-4-one], the melting point came to 293 °C.

As to `CC(C)N1CCN(c2ccc(-c3[nH]nc4c3C(=O)c3c(NC(=O)NN5CCN(C)CC5)cccc3-4)cc2)CC1` (as salt: TFA) [Example CCXXVI, 3-(4-(4-isopropylpiperazino)phenyl)-5-((4-methylpiperazino)carbamoylamino)indeno[1,2-c]pyrazol-4-one], the melting point was 272 °C. In turn, `CC1CCCC(C)N1NC(=O)Nc1cccc2c1C(=O)c1c-2n[nH]c1-c1ccc(N2CCNCC2)cc1` (centres unmarked) (as salt: TFA) [Example CCXXVII, 3-(4-piperazinophenyl)-5-((2,6-dimethylpiperidino)carbamoylamino)indeno[1,2-c]pyrazol-4-one] had a melting point of 270 °C.

Consider `O=C(Nc1cccc2c1C(=O)c1c-2n[nH]c1-c1ccc(N2CCNCC2)cc1)NN1CCN(CCO)CC1` (as salt: TFA) [Example CCXXVIII, 3-(4-piperazinophenyl)-5-((4-(2-hydroxyethyl)piperazino)carbamoylamino)indeno[1,2-c]pyrazol-4-one], for which the melting point stood at 279 °C. With `COC(C)(C)[C@H]1CCCN1NC(=O)Nc1cccc2c1C(=O)c1c-2n[nH]c1-c1ccc(N2CCNCC2)cc1` (as salt: TFA) [Example CCXXXI, 3-(4-piperazinophenyl)-5-((2(R)-(1-methoxy-1-methylethyl)pyrrolidino)carbamoylamino)indeno[1,2-c]pyrazol-4-one] the figure was 221 °C.

For the molecule `COC(C)(C)[C@@H]1CCCN1NC(=O)Nc1cccc2c1C(=O)c1c-2n[nH]c1-c1ccc(N2CCNCC2)cc1` (as salt: TFA) [Example CCXXXII, 3-(4-piperazinophenyl)-5-((2(S)-(1-methoxy-1-methylethyl)pyrrolidino)carbamoylamino)indeno[1,2-c]pyrazol-4-one], the melting point was found to be 218 °C. For `O=C(Nc1cccc2c1C(=O)c1c-2n[nH]c1-c1ccc(N2CCNCC2)cc1)NN1CCC[C@@H]1CO` (as salt: TFA) [Example CCXXXIII, 3-(4-piperazinophenyl)-5-((2(R)-(hydroxymethyl)pyrrolidino)carbamoylamino)indeno[1,2-c]pyrazol-4-one], the melting point stood at 193 °C. As for `O=C(Nc1cccc2c1C(=O)c1c-2n[nH]c1-c1ccc(N2CCNCC2)cc1)NN1CCC[C@H]1CO` (as salt: TFA) [Example CCXXXIV, 3-(4-piperazinophenyl)-5-((2(S)-(hydroxymethyl)pyrrolidino)carbamoylamino)indeno[1,2-c]pyrazol-4-one], the melting point stood at 190 °C.

The molecule `O=C(Nc1cccc2c1C(=O)c1c-2n[nH]c1-c1ccc(N2CCNCC2)cc1)NN1CCC[C@@H]1COCc1ccccc1` (as salt: TFA) [Example CCXXXV, 3-(4-piperazinophenyl)-5-((2(R)-(benzyloxymethyl)pyrrolidino)carbamoylamino)indeno[1,2-c]pyrazol-4-one] came in with a melting point of 207 °C.

In the case of `CC1CN(c2ccc(-c3[nH]nc4c3C(=O)c3c(NC(=O)NN5CCOCC5)cccc3-4)cc2)CCN1` (centres unmarked) (as salt: TFA) [Example CCXXXVII, 3-(4-(3-methylpiperazino)phenyl)-5-(morpholinocarbamoylamino)indeno[1,2-c]pyrazol-4-one], the melting point is 230 °C. On to `C[C@@H]1CN(c2ccc(-c3[nH]nc4c3C(=O)c3c(NC(=O)NN5CCOCC5)cccc3-4)cc2)C[C@H](C)N1` (as salt: TFA) [Example CCXXXVIII, 3-(4-(cis-3,5-dimethylpiperazino)phenyl)-5-(morpholinocarbamoylamino)indeno[1,2-c]pyrazol-4-one], for which the melting point amounted to 237 °C. With `CN1CCN(C(=O)c2ccc(-c3[nH]nc4c3C(=O)c3c(NC(=O)NN5CCOCC5)cccc3-4)s2)CC1` (as salt: TFA) [Example CL, 3-(5-(4-methylpiperazinocarbonyl)-2-thienyl)-5-(morpholinocarbamoylamino)indeno[1,2-c]pyrazol-4-one] the figure was 186 °C; with `CCN1CCN(C(=O)c2ccc(-c3[nH]nc4c3C(=O)c3c(NC(=O)NN5CCOCC5)cccc3-4)s2)CC1` (as salt: TFA) [Example CLI, 3-(5-(4-ethylpiperazinocarbonyl)-2-thienyl)-5-(morpholinocarbamoylamino)indeno[1,2-c]pyrazol-4-one], 186 °C. With `O=C(Nc1cccc2c1C(=O)c1c-2n[nH]c1-c1ccc(C(=O)N2CCN(CCO)CC2)s1)NN1CCOCC1` (as salt: TFA) [Example CLII, 3-(5-(4-(2-hydroxyethyl)piperazinocarbonyl)-2-thienyl)-5-(morpholinocarbamoylamino)indeno[1,2-c]pyrazol-4-one] the figure was 186 °C; with `O=C(Nc1cccc2c1C(=O)c1c-2n[nH]c1-c1ccc(C(=O)N2CCN(CC3CC3)CC2)s1)NN1CCOCC1` (as salt: TFA) [Example CLIII, 3-(5-(4-(cyclopropylmethyl)piperazinocarbonyl)-2-thienyl)-5-(morpholinocarbamoylamino)indeno[1,2-c]pyrazol-4-one], 211 °C; with `CC(C)(C)OC(=O)N1CCN(C(=O)c2ccc(-c3[nH]nc4c3C(=O)c3c(NC(=O)NN5CCOCC5)cccc3-4)s2)CC1` (as salt: TFA) [Example CLIV, 3-(5-(4-(t-butoxycarbonyl)piperazinocarbonyl)-2-thienyl)-5-(morpholinocarbamoylamino)indeno[1,2-c]pyrazol-4-one], 225 °C. In turn, `O=C(Nc1cccc2c1C(=O)c1c-2n[nH]c1-c1ccc(C(=O)N2CCC(N3CCCC3)CC2)s1)NN1CCOCC1` (as salt: TFA) [Example CLIX, 3-(5-(4-pyrrolidinopiperidinocarbonyl)-2-thienyl)-5-(morpholinocarbamoylamino)indeno[1,2-c]pyrazol-4-one] returned a melting point of 228 °C. For the molecule `O=C(Nc1cccc2c1C(=O)c1c-2n[nH]c1-c1ccc(C(=O)N2CCN(c3ccccn3)CC2)s1)NN1CCOCC1` (as salt: TFA) [Example CLV, 3-(5-(4-(2-pyridyl)piperazinocarbonyl)-2-thienyl)-5-(morpholinocarbamoylamino)indeno[1,2-c]pyrazol-4-one], the melting point turned out to be 202 °C.

Consider `O=C(Nc1cccc2c1C(=O)c1c-2n[nH]c1-c1ccc(C(=O)[C@]23CN[C@H](CN2)C3)s1)NN1CCOCC1` (as salt: TFA) [Example CLVI, 3-(5-(((1S,4S)-(+)-2,5-diazabicyclo[2.2.1]heptyl)carbonyl)-2-thienyl)-5-(morpholinocarbamoylamino)indeno [1,2-c]pyrazol-4-one], for which the melting point is over 300 °C.

`CN1C[C@@H]2C[C@@]1(C(=O)c1ccc(-c3[nH]nc4c3C(=O)c3c(NC(=O)NN5CCOCC5)cccc3-4)s1)CN2` (as salt: TFA) [Example CLVII, 3-(5-(((1S,4S)-(+)-2-methyl-2,5-diazabicyclo[2.2.1]heptyl)carbonyl)-2-thienyl)-5-(morpholinocarbamoylamino)indeno[1,2-c]pyrazol-4-one] showed a melting point of 244 °C.

Molecule `CN(C)C1CCN(C(=O)c2ccc(-c3[nH]nc4c3C(=O)c3c(NC(=O)NN5CCOCC5)cccc3-4)s2)CC1` (as salt: TFA) [Example CLVIII, 3-(5-(4-(N,N-dimethylamino)piperidinocarbonyl)-2-thienyl)-5-(morpholinocarbamoylamino)indeno[1,2-c]pyrazol-4-one] yielded a melting point of 185 °C. With `O=C(Nc1cccc2c1C(=O)c1c-2n[nH]c1-c1ccc(C(=O)NC2CCCCC2)s1)NN1CCOCC1` (as salt: TFA) [Example CLXI, 3-(5-cyclohexylaminocarbonyl-2-thienyl)-5-(morpholinocarbamoylamino)indeno[1,2-c]pyrazol-4-one] the figure was 264 °C; with `O=C(Nc1cccc2c1C(=O)c1c-2n[nH]c1-c1ccc(C(=O)NC2CCNCC2)s1)NN1CCOCC1` (as salt: TFA) [Example CLXII, 3-(5-(4-piperidylaminocarbonyl)-2-thienyl)-5-(morpholinocarbamoylamino)indeno[1,2-c]pyrazol-4-one], 224 °C.

As to `CN(C)C1CCCN(C(=O)c2ccc(-c3[nH]nc4c3C(=O)c3c(NC(=O)NN5CCOCC5)cccc3-4)s2)C1` (centres unmarked) (as salt: TFA) [Example CLXV, 3-(5-(3-(N,N-dimethylamino)piperidinocarbonyl)-2-thienyl)-5-(morpholinocarbamoylamino)indeno[1,2-c]pyrazol-4-one], the melting point is over 300 °C.
